Results as given in ChEMBL document CHEMBL1268953, “Discovery of novel 2-aryl-4-benzoyl-imidazoles targeting the colchicines binding site in tubulin as potential anticancer agents” (J Med Chem, 2010).
pIC50: −log10 of the molar value. Converted amounts (≈) assume the structure as drawn.

How the values were obtained:
Mus musculus [1] = assay: Toxicity in mouse B16-F1 cells xenografted C57/BL mouse assessed as reduction of body weight at 60 mg/kg, ip administered 7 days after tumor inoculation qd for 14 days; assay type: organism-based; set-up: dose 60 mg/kg, route intraperitoneal; details: in vivo
[2] = Antitumor activity against mouse B16-F1 cells xenografted in C57/BL mouse assessed as reduction of tumor growth at 60 mg/kg, ip administered 7 days after tumor inoculation qd for 14 days; assay type: functional; set-up: scale not given: the % may be the effect or the level left; details: route intraperitoneal
[3] = Aqueous solubility of the compound in water after 24 hrs by shake-flask method; assay type: physicochemical
[4] = Aqueous solubility of the compound in buffer at pH 7 after 24 hrs by shake-flask method; assay type: physicochemical
MDA-MB-435 = assay: cells; details: Homo sapiens, MDA-MB-435, 48 h
Description: Cytotoxicity against human MDA-MB-435 cells after 48 hrs by sulforhodamine B assay

PPC-1 = assay: Cytotoxicity against human PPC1 cells after 48 hrs by sulforhodamine B assay; assay type: functional, cell-based; details: Homo sapiens, PPC-1, 48 h
[5] = Cytotoxicity against human multidrug-resistant MDA-MB-435/LCCMDR1 cells after 48 hrs by sulforhodamine B assay; assay type: functional, cell-based; details: MDA-MB-435, 48 h
[6] = Cytotoxicity against human WM164 cells after 48 hrs by sulforhodamine B assay; assay type: functional, cell-based; details: Homo sapiens, WM164, 48 h
A-375 = assay: Cytotoxicity against human A375 cells after 48 hrs by sulforhodamine B assay; assay type: functional, cell-based; details: Homo sapiens, A-375, 48 h
DU-145 = assay: cells; details: Homo sapiens, DU-145, 48 h
Description: Cytotoxicity against human DU145 cells after 48 hrs by sulforhodamine B assay

LNCaP = assay: Cytotoxicity against human LNCAP cells after 48 hrs by sulforhodamine B assay; assay type: functional, cell-based
[7] = Cytotoxicity against mouse B16-F1 cells after 48 hrs by sulforhodamine B assay; assay type: functional, cell-based; details: Mus musculus, B16-F1, 48 h
PC-3 = assay: cells; details: Homo sapiens, PC-3, 48 h
Description: Cytotoxicity against human PC3 cells after 48 hrs by sulforhodamine B assay

Mus musculus [8] = assay: Toxicity in mouse B16-F1 cells xenografted C57/BL mouse assessed as reduction of body weight at 10 mg/kg, ip administered 7 days after tumor inoculation qd for 14 days; assay type: organism-based; set-up: dose 10 mg/kg, route intraperitoneal; details: in vivo
Mus musculus [9] = assay: Toxicity in mouse B16-F1 cells xenografted C57/BL mouse assessed as reduction of body weight at 30 mg/kg, ip administered 7 days after tumor inoculation qd for 14 days; assay type: organism-based; set-up: dose 30 mg/kg, route intraperitoneal; details: in vivo

Row | SMILES | Activity (Mus musculus [1]) | Activity [2] | solubility thermodynamic at 24 h [3] | solubility thermodynamic at 24 h [4] | pIC50 (MDA-MB-435) | pIC50 (PPC-1) | pIC50 [5] | pIC50 [6] | pIC50 (A-375) | pIC50 (DU-145) | pIC50 (LNCaP) | pIC50 [7] | pIC50 (PC-3) | Activity (Mus musculus [8]) | Activity (Mus musculus [9])
1 | CN(C)/N=N/c1[nH]cnc1C(N)=O [DACARBAZINE] | Non-toxic | 51% |  |  |  |  |  |  |  |  |  |  |  |  | 
2 | COc1cc(C(=O)c2csc(-c3ccc(N(C)C)cc3)n2)cc(OC)c1OC |  |  | 0.833 µg/mL (≈ 2.09 µM) | 0.909 µg/mL (≈ 2.28 µM) |  |  |  |  |  |  |  |  |  |  | 
3 | COc1ccc(-c2ncc(C(=O)c3ccc(F)cc3)n2S(=O)(=O)c2ccccc2)cc1 |  |  |  |  | 7.52 | 7.49 | 7.42 | 7.37 | 7.44 | 7.28 | 7.51 | 7.15 | 7.48 |  | 
4 | COc1ccc(-c2nc(C(=O)c3ccc(F)cc3)c[nH]2)cc1 |  |  |  |  | 7.52 |  |  |  |  |  |  |  |  | Non-toxic | Non-toxic
5 | COc1cc(C(=O)c2c[nH]c(-c3ccc(N(C)C)cc3)n2)cc(OC)c1OC |  |  | 11.3 µg/mL (≈ 29.6 µM) | 48.9 µg/mL (≈ 128 µM) |  | 7.17 |  | 7.10 | 7.09 | 7.02 | 7.24 | 6.44 | 7.04 |  | 
6 | COc1ccc(/C=C\c2cc(OC)c(OC)c(OC)c2)cc1O [COMBRETASTATIN A4] |  |  | 2.83 µg/mL (≈ 8.95 µM) | 1.04 µg/mL (≈ 3.29 µM) |  |  |  |  |  |  |  |  |  |  | 
7 | CC(=O)O[C@H]1C(=O)[C@@]2(C)[C@H]([C@H](OC(=O)c3ccccc3)[C@]3(O)C[C@H](OC(=O)[C@H](O)[C@@H](NC(=O)c4ccccc4)c4ccccc4)C(C)=C1C3(C)C)[C@]1(OC(C)=O)CO[C@@H]1C[C@@H]2O [PACLITAXEL] |  |  | 0.021 µg/mL (≈ 0.0246 µM) | 0.137 µg/mL (≈ 0.16 µM) |  |  |  |  |  |  |  |  |  |  | 
8 | O=S(=O)(c1ccccc1)n1ccnc1-c1ccccc1 |  |  |  |  |  | < 5.00 |  | < 5.00 | < 5.00 | < 5.00 | < 5.00 | < 5.00 | < 5.00 |  | 
9 | Cc1ccc(C(=O)c2cnc(-c3ccccc3)n2S(=O)(=O)c2ccccc2)cc1 |  |  |  |  |  | < 5.00 |  | < 5.00 | < 5.00 | < 5.00 | < 5.00 | < 5.00 | < 5.00 |  | 
10 | Cc1ccc(C(=O)c2c[nH]c(-c3ccccc3)n2)cc1 |  |  |  |  |  | < 5.00 |  | < 5.00 | < 5.00 | < 5.00 | < 5.00 | < 5.00 | < 5.00 |  | 
11 | Cc1ccc(-c2nc(C(=O)c3ccc(F)cc3)c[nH]2)cc1 |  |  |  |  |  | 7.27 |  | 6.81 | 6.85 | 7.11 | 7.35 | 6.65 | 7.19 |  | 
12 | COc1cccc(C(=O)c2c[nH]c(-c3ccccc3)n2)c1 |  |  |  |  |  | < 5.00 |  | < 5.00 | < 5.00 | < 5.00 | < 5.00 | < 5.00 | < 5.00 |  | 
13 | O=C(c1ccc(F)cc1)c1cnc(-c2ccccc2)n1S(=O)(=O)c1ccccc1 |  |  |  |  |  | 6.24 |  | 6.22 | 6.20 | 6.07 | 6.24 | 6.02 | 5.65 |  | 
